Test results: PubChem BioAssay AID1745844 (Carcinogenic Potency Database (CPDB), 2022)

Test system: rodent lifetime carcinogenesis bioassay, tumor incidence TD50
Experiment: chronic cancer bioassays in animals – CPDB, compiled studies (AID 1745844)
Conditions: in feed

Cc1cnc2ccc3c(nc(N)n3C)c2n1
TD50 (mouse, strain CDF1, females, site: all sites, lesion: lymphoma and leukemia, combined, dosed 84 weeks, study length 84 weeks): 6820 mg/kg/day | TD50 (mouse, strain CDF1, females, site: liver, lesion: hepatocellular adenoma, dosed 84 weeks, study length 84 weeks): 14.2 mg/kg/day | TD50 (mouse, strain CDF1, females, site: liver, lesion: hepatocellular carcinoma, dosed 84 weeks, study length 84 weeks): 27.8 mg/kg/day | TD50 (mouse, strain CDF1, females, site: liver, lesion: several types, types named in the paper, dosed 84 weeks, study length 84 weeks): 14.2 mg/kg/day | TD50 (mouse, strain CDF1, females, site: lung, lesion: adenocarcinoma, dosed 84 weeks, study length 84 weeks): 257 mg/kg/day | TD50 (mouse, strain CDF1, females, site: lung, lesion: adenoma, dosed 84 weeks, study length 84 weeks): 143 mg/kg/day | TD50 (mouse, strain CDF1, females, site: lung, lesion: several types, types named in the paper, dosed 84 weeks, study length 84 weeks): 77.2 mg/kg/day | TD50 (mouse, strain CDF1, males, site: all sites, lesion: lymphoma and leukemia, combined, dosed 84 weeks, study length 84 weeks): 109 mg/kg/day | TD50 (mouse, strain CDF1, males, site: liver, lesion: hepatocellular adenoma, dosed 84 weeks, study length 84 weeks): 86.9 mg/kg/day | TD50 (mouse, strain CDF1, males, site: liver, lesion: hepatocellular carcinoma, dosed 84 weeks, study length 84 weeks): 102 mg/kg/day | TD50 (mouse, strain CDF1, males, site: liver, lesion: several types, types named in the paper, dosed 84 weeks, study length 84 weeks): 83.8 mg/kg/day | TD50 (mouse, strain CDF1, males, site: lung, lesion: adenocarcinoma, dosed 84 weeks, study length 84 weeks): 236 mg/kg/day | TD50 (mouse, strain CDF1, males, site: lung, lesion: adenoma, dosed 84 weeks, study length 84 weeks): 262 mg/kg/day | TD50 (mouse, strain CDF1, males, site: lung, lesion: several types, types named in the paper, dosed 84 weeks, study length 84 weeks): 134 mg/kg/day | TD50 (rat, strain F344/DuCrj, females, site: Zymbal's gland, lesion: squamous-cell carcinoma, dosed 61 weeks, study length 61 weeks): 6.31 mg/kg/day | TD50 (rat, strain F344/DuCrj, females, site: clitoral gland, lesion: squamous-cell carcinoma, dosed 61 weeks, study length 61 weeks): 4.72 mg/kg/day | TD50 (rat, strain F344/DuCrj, females, site: liver, lesion: neoplastic nodule, dosed 61 weeks, study length 61 weeks): 6.31 mg/kg/day | TD50 (rat, strain F344/DuCrj, females, site: skin, lesion: squamous-cell carcinoma, dosed 61 weeks, study length 61 weeks): 87.2 mg/kg/day | TD50 (rat, strain F344/DuCrj, males, site: Zymbal's gland, lesion: sebaceous adenoma, dosed 56 weeks, study length 56 weeks): 38.9 mg/kg/day | TD50 (rat, strain F344/DuCrj, males, site: Zymbal's gland, lesion: several types, types named in the paper, dosed 56 weeks, study length 56 weeks): 4.91 mg/kg/day | TD50 (rat, strain F344/DuCrj, males, site: Zymbal's gland, lesion: several types, types named in the paper, dosed 61 weeks, study length 61 weeks): 2.72 mg/kg/day | TD50 (rat, strain F344/DuCrj, males, site: Zymbal's gland, lesion: squamous-cell carcinoma, dosed 56 weeks, study length 56 weeks): 8.6 mg/kg/day | TD50 (rat, strain F344/DuCrj, males, site: Zymbal's gland, lesion: squamous-cell carcinoma, dosed 61 weeks, study length 61 weeks): 3.59 mg/kg/day | TD50 (rat, strain F344/DuCrj, males, site: Zymbal's gland, lesion: squamous-cell papilloma, dosed 56 weeks, study length 56 weeks): 29.1 mg/kg/day | TD50 (rat, strain F344/DuCrj, males, site: Zymbal's gland, lesion: squamous-cell papilloma, dosed 61 weeks, study length 61 weeks): 35.8 mg/kg/day | TD50 (rat, strain F344/DuCrj, males, site: liver, lesion: hepatocellular adenoma, dosed 56 weeks, study length 56 weeks): 3.15 mg/kg/day | TD50 (rat, strain F344/DuCrj, males, site: liver, lesion: hepatocellular carcinoma, dosed 56 weeks, study length 56 weeks): 2.91 mg/kg/day | TD50 (rat, strain F344/DuCrj, males, site: liver, lesion: hepatocellular carcinoma, dosed 61 weeks, study length 61 weeks): 1.26 mg/kg/day | TD50 (rat, strain F344/DuCrj, males, site: liver, lesion: neoplastic nodule, dosed 61 weeks, study length 61 weeks): 73.5 mg/kg/day | TD50 (rat, strain F344/DuCrj, males, site: liver, lesion: several types, types named in the paper, dosed 56 weeks, study length 56 weeks): 1.24 mg/kg/day | carcinogen call (rat, strain F344/DuCrj, males, site: liver, lesion: several types, types named in the paper, dosed 61 weeks, study length 61 weeks): positive | TD50 (rat, strain F344/DuCrj, males, site: skin, lesion: basal-cell carcinoma, dosed 61 weeks, study length 61 weeks): 73.5 mg/kg/day | TD50 (rat, strain F344/DuCrj, males, site: skin, lesion: sebaceous adenoma, dosed 56 weeks, study length 56 weeks): 58.8 mg/kg/day | TD50 (rat, strain F344/DuCrj, males, site: skin, lesion: several types, types named in the paper, dosed 56 weeks, study length 56 weeks): 12 mg/kg/day | TD50 (rat, strain F344/DuCrj, males, site: skin, lesion: several types, types named in the paper, dosed 61 weeks, study length 61 weeks): 8.76 mg/kg/day | TD50 (rat, strain F344/DuCrj, males, site: skin, lesion: squamous-cell carcinoma, dosed 56 weeks, study length 56 weeks): 59.2 mg/kg/day | TD50 (rat, strain F344/DuCrj, males, site: skin, lesion: squamous-cell carcinoma, dosed 61 weeks, study length 61 weeks): 13.1 mg/kg/day | TD50 (rat, strain F344/DuCrj, males, site: skin, lesion: squamous-cell papilloma, dosed 56 weeks, study length 56 weeks): 59.2 mg/kg/day | TD50 (rat, strain F344/DuCrj, males, site: skin, lesion: squamous-cell papilloma, dosed 61 weeks, study length 61 weeks): 73.5 mg/kg/day | TD50 (rat, strain F344/DuCrj, males, site: skin, lesion: trichoepithelioma, dosed 56 weeks, study length 56 weeks): 38.9 mg/kg/day
